This is an account of results in patent US5270148A, “Processing solution for silver halide color photographic materials and method for processing the materials with the processing solution” (priority 1991, dated 1993).

The nature of series [1]: oxidation reduction potential of aminopolycarboxylic acid ferric complex salts (bleaching agents). Type of series: physicochemical. Particulars: vs. NHE, pH = 6. From the text: Then, practical examples of the aminopolycarboxylic acid ferric complex salt in this invention are illustrated below together with their oxidation reduction potentials, but the bleaching agents for use in this invention are not limited to these compounds.
The oxidation reduction potential of the bleaching agent is defined as the oxidation reduction potential obtained by the method described in Transactions of the Faraday Society, Vol. 55, (1959), pages 1312-1313.

Series [2] in a line: acid dissociation constant pKa of secondary amines of formula (II). Conditions: in water at room temperature (about 25° C.).
A short description of series [3]: Example 3: turbidity of concentrated stabilizing replenisher after passage of time. Type of series: physicochemical. Also noted: key to Turbidity after Passage of Time: E: Neither turbidity nor precipitation.; G: Turbidity occurred very slightly.; M: Slightly precipitation formed at the bottom of the vessel in addition to turbidity.; B: Precipitation layer of 5 mm or more formed on the bottom of the vessel. Conditions: 40° C. As for the experimental part: One liter of the concentrated stabilizing replenisher shown below was prepared and filled in a 1.2 liter polyethylene bottle.
After allowing to stand the concentrated solution thus-prepared at 40° C. for 1 month or 6 months, the turbidity of the solution was visually observed.
In addition, the evaluation standards of the turbidity of the solution with the passage of time in Table C are as follows.

The nature of series [4]: Example 4: image storage stability (magenta fading), color reversal material. Particulars: 80° C. for 3 days. The protocol:
Sample 401 prepared was slit in 35 mm width, and after perforated in the same format as films on the market and applying thereto a uniform light exposure, the sample was processed according to the following processing steps using an hanging type automatic processor.
The image storage stability test was carried out under the condition of 80° C. for 3 days. Also, in a bright place, the presence of unevenness of the sample was visually observed.

Series [5] is described as follows: Example 6: image storage stability (magenta fading), image stabilizer in conditioning bath. As for the experimental part:
The same processing steps as in Example 4 were carried out except for changing the conditioning solution and the stabilizing solution as follows.
In this case, the time for the final stabilizing step was one minute and the time for the conditioning step was changed as shown in Table E in the processing.
By using the same method as in Example 1, the image storage stability of the processed film obtained and the vapor pressure of formaldehyde were evaluated.

Series [6] is described as follows: Example 1: evaluation of image storage stability (magenta fading), stabilizing solution. Particulars: for M Fading: 2 weeks 60° C. 20% RH. The protocol: In addition, the time for the stabilization step was changed by changing the length of the processing rack.
Thereafter, the sample was allowed to stand for 2 weeks under the conditions of 60° C. 20% RH and then the magenta density was measured again. Thus, magenta fading was evaluated by the reduced magenta density in the density stage that the magenta density after processing was 1.5. (M fading)

The nature of series [7]: Example 2: fading of the magenta density at intermediate density portion. Particulars: formaldehyde 4.0 mmol, 2 weeks 60° C., 70% RH. The protocol: The following processing steps were carried out using the following processing solutions and a cine type automatic processor.
According to a sample, fading of the magenta density at the intermediate density portion and the occurrence of yellow stain at the minimum density portion were observed.

The mark [8] stands for this setting: 3 mmol/l, time of conditioning bath 40 sec.
Where [9] appears, read: 3 mmol/l, time of conditioning bath 90 sec.
Setting [10] is: 3 mmol/l, time of conditioning bath 120 sec.
[11] abbreviates: 5 mmol/l, stabilization time 10 sec.
The mark [12] stands for this setting: 5 mmol/l, stabilization time 20 sec.
Setting [13] is: 5 mmol/l, stabilization time 60 sec.

As to “1,3-Propylenediaminetetraacetic Acid Ferric Complex Salt [compound 7]”, the “Oxidation Reduction Potential” value in series [1] is reported as 250 mV.
On the same count and under the same terms, in the case of “1,4-Butylenediaminetetraacetic Acid Ferric Salt [compound 4]” it was 230 mV.
Molecule `CCCCNC` [Compound 11-5] registered a pKa in series [2] of 10.9.
As to `OCCN(CCO)Cn1cccn1` [Compound A-1], the “Turbidity after Passage of Time” value in series [3] (0.5 mol, 1 month) is on record as “G”; in series [3] (0.5 mol, 6 months), “M”. Moreover, in series [4] (6 mmol/l), the “M Fading” value was 0.04.
Take `Cc1ccn(CN(CCO)CCO)n1` [Compound A-11]: the “M Fading” value in series [5] (setting [8]) was found to be 0.01; in series [5] (setting [9]), 0.00; in series [5] (setting [10]) it was 0.00; in series [6] (setting [11]), 0.10; in series [6] (setting [12]), 0.05; in series [6] (setting [13]), 0.00.
`OCCN(CCO)Cn1cncn1` [Compound A-12]: the “Turbidity after Passage of Time” value in series [3] (0.5 mol, 1 month) is “G”; in series [3] (0.5 mol, 6 months) it was “M”.
Consider `c1cnn(CN2CCOCC2)c1` [Compound A-16], for which the “M Fading” value was found to be 0.02 in series [6] (setting [11]), 0.00 in series [6] (setting [12]), 0.00 in series [6] (setting [13]) and 0.05 in series [4] (6 mmol/l).
For `c1cnn(CN2CCCCC2)c1` [Compound A-17], the “M Fading” value in series [6] (setting [11]) stood at 0.02; in series [6] (setting [12]), 0.01; in series [6] (setting [13]) it was 0.00.
For `c1cnn(CN2CCN(Cn3cccn3)CC2)c1` [Compound A-22], the “M Fading” value was found to be 0.01 in series [5] (setting [8]); 0.00 in series [5] (setting [9]); 0.00 in series [5] (setting [10]); 0.01 in series [6] (setting [11]); 0.00 in series [6] (setting [12]); 0.00 in series [6] (setting [13]). Also, the “M Fading” value in series [4] (6 mmol/l) is recorded as 0.00. The “Turbidity after Passage of Time” value in series [3] (0.5 mol, 1 month) is on record as “G”; in series [3] (0.5 mol, 6 months) it was “M”.
As to `c1ncn(CN2CCN(Cn3cncn3)CC2)n1` [Compound A-23], the “M Fading” value in series [5] (setting [8]), in series [5] (setting [9]), in series [5] (setting [10]), in series [6] (setting [11]), in series [6] (setting [12]) and in series [6] (setting [13]) was 0.00 each time. Moreover, the “M Fading” value in series [4] (6 mmol/l) was found to be 0.00. The “Turbidity after Passage of Time” value in series [3] (0.5 mol, 1 month) is listed as “G”; in series [3] (0.5 mol, 6 months) it was “M”.
Consider `c1ncn(CN2CCOCC2)n1` [Compound A-26], for which the “M Fading” value in series [6] (setting [11]) came out at 0.03; in series [6] (setting [12]), 0.01; in series [6] (setting [13]), 0.01; in series [4] (6 mmol/l), 0.00.
With `OCCN1CCN(Cn2cccn2)CC1` [Compound A-32], the “M Fading” value in series [5] (setting [8]) is 0.01; in series [5] (setting [9]) it was 0.01; in series [5] (setting [10]) it was 0.01; in series [4] (6 mmol/l) it was 0.00.
As to `OCN1CCN(Cn2cncn2)CC1` [Compound A-45], the “M Fading” value in series [5] (setting [8]) came out at 0.01; in series [5] (setting [9]) it was 0.01; in series [5] (setting [10]) it was 0.01; in series [6] (setting [11]) it was 0.04; in series [6] (setting [12]), 0.01; in series [6] (setting [13]), 0.01.
For the molecule `c1nc[nH]n1` [Compound I-4], the results for the M-Fading in series [7] (formula (I) 4 mmol) and in series [7] (formula (I) 16 mmol) were 0.16 and 0.17, respectively.
Take `O=C1N(CO)CCN1CO` [Dimethylolethyleneurea, reference compound]: the “Turbidity after Passage of Time” value is reported as “M” in series [3] (0.3 mol, 1 month) and “B (Precipitation layer of 5 mm or more formed on the bottom of the vessel.)” in series [3] (0.3 mol, 6 months).
Regarding `C1N2CN3CN1CN(C2)C3` [Hexamethylenetetramine, reference compound], the “M Fading” value in series [5] (setting [8]) was found to be 0.25; in series [5] (setting [9]), 0.22; in series [5] (setting [10]), 0.10; in series [5] (13 mmol/l, time of conditioning bath 40 sec.), 0.09; in series [5] (13 mmol/l, time of conditioning bath 90 sec.), 0.05; in series [5] (13 mmol/l, time of conditioning bath 120 sec.) it was 0.02. Also, the “M Fading” value in series [6] (setting [11]) turned out to be 0.30; in series [6] (setting [12]), 0.31; in series [6] (setting [13]), 0.30; in series [6] (27 mmol/l, stabilization time 10 sec.) it was 0.28; in series [6] (27 mmol/l, stabilization time 20 sec.) it was 0.27; in series [6] (27 mmol/l, stabilization time 60 sec.), 0.28. Also, the entries for the “M Fading” value in series [4] (6 mmol/l) and in series [4] (100 mmol/l) were 0.29 and 0.10, respectively. The “fading inhibition effect (in words)” value in series [6] (Table A) was “the fading inhibition effect is insufficient even when a large amount of the compound is used”.
In series [2], `CNC` [II-1] displayed a pKa of 10.9.
Still for that read-out and setting: in the case of `CCNCCO` [II-6] it was 10.1.
On the same count and under the same terms, for `CNCCO` [II-8] the value was 9.8.
On the same count and under the same terms, for `CNCCCCO` [II-9] the value was 9.6.
As to `CCCCNCCC#N` [II-10], the pKa in series [2] was found to be 8.3.
Still for that read-out and setting: in the case of `CC(C)NCCC#N` [II-11] it was 8.0; in that of `CNCC(=O)N(C)C` [II-12], 8.8; in that of `CCNC[Si](C)(C)C` [II-13], 11.1.
The same measure, in the same setting: for `CCN(CC)CCNC` [II-14] the value was 9.9; for `CNCCNC` [II-15], 9.9; for `CCNCCNCC` [II-16], 10.2.
On the same count and under the same terms, in the case of `OCCNCCNCCO` [II-17] it was 9.2.
`CCNCCCNCC` [II-18] yielded a pKa in series [2] of 10.6.
In the case of `C1COCCN1` [II-21], the M-Fading in series [7] (formula (II) 4 mmol) stood at 0.04.
In the case of `C1CNCCN1` [II-22], the M-Fading in series [7] (formula (II) 2 mmol) amounted to 0.03; in series [7] (formula (II) 4 mmol), 0.02.
Molecule `C1CCCNCC1` [II-23] yielded a pKa in series [2] of 10.9.
On the same count and under the same terms, in the case of `CC1CCNCC1` [II-24] it was 10.8.
On the same count and under the same terms, for `CC1CNC(C)CN1` (centres unmarked) [II-25] the value was 9.7; for `CCOC(=O)N1CCNCC1` [II-26], 8.3.
The molecule `C1NCC2CNCC1C2` [II-27] returned a pKa in series [2] of 11.3.
As to “Diethylenetriaminepentaacetic Acid Ferric Complex Salt [compound 9]”, the “Oxidation Reduction Potential” value in series [1] turned out to be 80 mV.
Same read-out and setting: in the case of “Glycol Ether Diaminetetraacetic Acid Ferric Complex Salt [compound 6]” it was 240 mV; in that of “Iminodiacetic Acid Ferric Complex Salt [compound 3]”, 210 mV; in that of “Methyliminodiacetic Acid Ferric Complex Salt [compound 2]”, 200 mV.
“N-(2-Acetamido)iminodiacetic Acid Ferric Complex Salt [compound 1]”: the “Oxidation Reduction Potential” value in series [1] is 180 mV.

Usually pKa stands for the negative logarithm of the acid dissociation constant.
